Results from patent US20260028326A1, “COMPOUND BASED ON ISOINDOLINE-SUBSTITUTED GLUTARIMIDE BACKBONE AND USE THEREOF” (GLUETACS THERAPEUTICS (SHANGHAI) CO., LTD., priority 2022, published 2026).

Legend:
[1] = test system: CCRF-CEM cells; test: Tumor cell proliferation IC50 (CCK-8), CCRF-CEM; settings: Homo sapiens, 96 h, read-out: IC50 for inhibiting the proliferation of tumor cells, CCRF-CEM;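 note: cell viability measured with CCK-8 reagent after compound treatment, IC50 taken from plotted growth inhibition curves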
Experimental: The tumor cells used herein were cultured in a cell culture medium listed in table A at 37° C. in an incubator with 5% CO2.
After the cells were treated with the compounds of the present disclosure for a period of time, the cell viability detection reagent was added to the culture medium for cell viability assessment according to the instructions provided with the CCK-8 kit. […] The growth inhibition of the compounds of the present disclosure on cells was plotted by Prism Graphpad software, and the IC50 values of the compounds of the present disclosure were calculated therefrom.

[2] = biological target: human Cereblon WT GST-tagged protein (Homo sapiens (Human), UniProt Q96SW2); test: CRBN-binding affinity, HTRF (CEREBLON BINDING kit)
Procedure, shortened: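 GST-tagged human WT Cereblon incubated with compound, then Thalidomide-Re tracer and anti-GST Eu antibody added. Displacement read by HTRF, reported as CRBN binding inhibition rate against blank control wells without protein.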

[3] = test system: Mino cells; test: Tumor cell proliferation IC50 (CCK-8), Mino; settings: Homo sapiens, 72 h, read-out: IC50 for inhibiting the proliferation of tumor cells, Mino;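 note: cell viability assessed with CCK-8 reagent after compound exposure, IC50 derived from plotted growth inhibition curves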
[4] = test system: MM.1S cells; test: Tumor cell proliferation IC50 (CCK-8), MM.1S; settings: Homo sapiens, MM1.S, 72 h, read-out: IC50 for inhibiting the proliferation of tumor cells, MM.1S;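 note: viability of cultured cells read by CCK-8 reagent after compound exposure, growth inhibition curves fitted to derive IC50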
[5] = biological target: IKZF3 protein (Homo sapiens (Human), UniProt Q96SW2+Q9UKT9); test: Western-blot assay of substrate protein degradation in hPBMC, IKZF3; type: cell-based; settings: for residual substrate protein level, IKZF3: hPBMC cells, compound 500 nM, 24 hours, Western blot
[6] = biological target: IKZF1 protein (Homo sapiens (Human), UniProt Q13422+Q96SW2); test: Western-blot assay of substrate protein degradation in hPBMC, IKZF1; type: cell-based; settings: for residual substrate protein level, IKZF1: hPBMC cells, compound 500 nM, 24 hours, Western blot
[7] = biological target: GSPT1 protein (Homo sapiens (Human), UniProt P15170+Q96SW2); test: Western-blot assay of substrate protein degradation in hPBMC, GSPT1; type: cell-based; settings: for residual substrate protein level, GSPT1: hPBMC cells, compound 500 nM, 24 hours, Western blot
[8] = hPBMC, 24 h, serially diluted 0.03-1000 nM

Chain of GSPT1 protein (P15170 whole entry): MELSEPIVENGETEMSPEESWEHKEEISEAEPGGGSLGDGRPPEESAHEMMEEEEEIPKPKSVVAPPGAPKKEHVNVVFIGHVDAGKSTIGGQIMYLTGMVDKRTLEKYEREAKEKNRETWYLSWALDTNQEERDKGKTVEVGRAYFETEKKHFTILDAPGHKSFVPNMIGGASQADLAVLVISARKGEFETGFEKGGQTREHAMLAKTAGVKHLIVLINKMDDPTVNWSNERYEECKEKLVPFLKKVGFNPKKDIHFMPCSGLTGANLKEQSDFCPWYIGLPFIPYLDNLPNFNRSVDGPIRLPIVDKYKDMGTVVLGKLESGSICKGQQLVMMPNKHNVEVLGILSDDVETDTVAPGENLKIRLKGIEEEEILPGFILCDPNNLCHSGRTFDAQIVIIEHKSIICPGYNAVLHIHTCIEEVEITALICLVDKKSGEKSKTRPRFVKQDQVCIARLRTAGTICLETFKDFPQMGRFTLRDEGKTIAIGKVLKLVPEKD
Chain of GSPT1 protein (Q96SW2 whole entry): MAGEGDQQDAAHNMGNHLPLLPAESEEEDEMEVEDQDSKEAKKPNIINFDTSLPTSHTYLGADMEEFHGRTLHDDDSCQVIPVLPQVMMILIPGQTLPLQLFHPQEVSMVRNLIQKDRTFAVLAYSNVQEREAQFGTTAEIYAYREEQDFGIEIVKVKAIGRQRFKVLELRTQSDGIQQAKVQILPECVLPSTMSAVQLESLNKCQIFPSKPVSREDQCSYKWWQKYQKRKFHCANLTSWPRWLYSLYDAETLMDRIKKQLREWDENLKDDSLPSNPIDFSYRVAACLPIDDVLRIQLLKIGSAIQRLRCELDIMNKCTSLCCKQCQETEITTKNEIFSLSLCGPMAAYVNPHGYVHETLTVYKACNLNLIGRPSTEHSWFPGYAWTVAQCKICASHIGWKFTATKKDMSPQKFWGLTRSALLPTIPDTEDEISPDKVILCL
Chain of GSPT1 protein (Q16531 whole entry partner): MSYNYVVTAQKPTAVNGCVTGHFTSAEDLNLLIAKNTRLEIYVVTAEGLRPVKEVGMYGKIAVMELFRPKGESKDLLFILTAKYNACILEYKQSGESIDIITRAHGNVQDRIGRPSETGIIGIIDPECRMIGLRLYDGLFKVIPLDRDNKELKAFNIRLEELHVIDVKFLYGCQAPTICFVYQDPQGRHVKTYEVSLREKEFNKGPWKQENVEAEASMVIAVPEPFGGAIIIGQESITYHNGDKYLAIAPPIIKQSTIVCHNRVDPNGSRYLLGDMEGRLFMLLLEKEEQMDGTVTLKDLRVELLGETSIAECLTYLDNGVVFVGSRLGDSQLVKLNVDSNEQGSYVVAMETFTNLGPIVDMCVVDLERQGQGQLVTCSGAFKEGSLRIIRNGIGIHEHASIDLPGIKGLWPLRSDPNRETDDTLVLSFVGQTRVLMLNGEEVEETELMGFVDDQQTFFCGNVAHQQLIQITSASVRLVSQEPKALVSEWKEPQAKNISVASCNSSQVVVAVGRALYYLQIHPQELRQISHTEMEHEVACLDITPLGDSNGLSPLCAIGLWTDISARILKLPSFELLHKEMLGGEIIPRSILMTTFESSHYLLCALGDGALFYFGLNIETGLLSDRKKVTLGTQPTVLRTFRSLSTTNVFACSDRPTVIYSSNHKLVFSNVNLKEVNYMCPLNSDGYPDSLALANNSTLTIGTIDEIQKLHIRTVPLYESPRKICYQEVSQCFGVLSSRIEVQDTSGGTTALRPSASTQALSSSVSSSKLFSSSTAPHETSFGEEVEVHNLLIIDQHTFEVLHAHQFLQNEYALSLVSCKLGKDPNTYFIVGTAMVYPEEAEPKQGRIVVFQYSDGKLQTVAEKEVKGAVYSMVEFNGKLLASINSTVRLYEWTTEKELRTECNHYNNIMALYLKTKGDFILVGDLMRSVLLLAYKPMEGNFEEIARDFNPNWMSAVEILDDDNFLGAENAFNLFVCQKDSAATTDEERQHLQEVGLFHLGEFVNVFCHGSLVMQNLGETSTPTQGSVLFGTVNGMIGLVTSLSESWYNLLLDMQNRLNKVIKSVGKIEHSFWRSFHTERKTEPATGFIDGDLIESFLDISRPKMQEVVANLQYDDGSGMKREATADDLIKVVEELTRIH
Chain of human Cereblon WT GST-tagged protein (Q96SW2 whole entry): as the sequence (Q96SW2 whole entry) above
Chain of IKZF1 protein (Q13422 whole entry): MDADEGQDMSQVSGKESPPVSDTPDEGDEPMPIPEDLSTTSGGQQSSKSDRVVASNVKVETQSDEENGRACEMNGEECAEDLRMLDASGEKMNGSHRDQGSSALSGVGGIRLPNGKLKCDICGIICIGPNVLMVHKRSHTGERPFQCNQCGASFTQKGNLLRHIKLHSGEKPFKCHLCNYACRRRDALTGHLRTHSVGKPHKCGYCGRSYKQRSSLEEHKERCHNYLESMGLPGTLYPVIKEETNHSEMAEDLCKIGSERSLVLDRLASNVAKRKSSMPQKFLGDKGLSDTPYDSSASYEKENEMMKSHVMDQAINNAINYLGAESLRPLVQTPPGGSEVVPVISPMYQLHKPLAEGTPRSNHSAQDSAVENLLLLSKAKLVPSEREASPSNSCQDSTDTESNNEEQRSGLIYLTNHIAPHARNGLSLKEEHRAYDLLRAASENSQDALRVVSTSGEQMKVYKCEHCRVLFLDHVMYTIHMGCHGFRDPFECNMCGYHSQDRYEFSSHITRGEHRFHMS
Chain of IKZF1 protein (Q96SW2 whole entry): as the sequence (Q96SW2 whole entry) above
Chain of IKZF1 protein (Q16531 whole entry partner): as the sequence (Q16531 whole entry partner) above
Chain of IKZF3 protein (Q9UKT9 whole entry): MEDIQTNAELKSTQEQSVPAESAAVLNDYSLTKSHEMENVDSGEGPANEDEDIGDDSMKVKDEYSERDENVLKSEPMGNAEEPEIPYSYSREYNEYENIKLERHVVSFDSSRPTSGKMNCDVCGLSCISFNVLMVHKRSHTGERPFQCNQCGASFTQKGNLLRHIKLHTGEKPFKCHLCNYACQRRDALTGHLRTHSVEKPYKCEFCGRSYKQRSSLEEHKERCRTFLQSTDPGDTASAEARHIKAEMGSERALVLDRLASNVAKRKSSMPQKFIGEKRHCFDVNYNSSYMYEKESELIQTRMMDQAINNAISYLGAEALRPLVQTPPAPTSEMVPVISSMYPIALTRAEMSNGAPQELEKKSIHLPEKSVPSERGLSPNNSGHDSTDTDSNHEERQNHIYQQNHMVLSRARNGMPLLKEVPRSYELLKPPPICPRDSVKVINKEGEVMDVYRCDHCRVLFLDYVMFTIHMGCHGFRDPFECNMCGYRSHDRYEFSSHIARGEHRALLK
Chain of IKZF3 protein (Q96SW2 whole entry): as the sequence (Q96SW2 whole entry) above
Chain of IKZF3 protein (Q16531 whole entry partner): as the sequence (Q16531 whole entry partner) above

| SMILES | IC50 [1] [µM] | IC50 [2] [µM] | IC50 [3] [µM] | IC50 [4] [µM] | concentration at which significant degradation effects on IKZF3 protein are exhibited (FIG. 1) [5, 8] [nM] | concentration at which significant degradation effects on IKZF1 protein are exhibited (FIG. 1) [6, 8] [nM] | concentration at which significant degradation effects on GSPT1 protein are exhibited (FIG. 1) [7, 8] [nM] | residual substrate protein level, IKZF3 [5] | residual substrate protein level, IKZF1 [6] | residual substrate protein level, GSPT1 [7] |
| --- | --- | --- | --- | --- | --- | --- | --- | --- | --- | --- |
| O=C1CCC(N2Cc3cc(CN4CCN(Cc5ccccc5-c5ccc(Cl)cc5)CC4C(F)(F)F)ccc3C2=O)C(=O)N1 (stereo not drawn) [GT-05711, 3-(5-((4-((4′-chloro-[1,1′-biphenyl]-2-yl)methyl)-2-(trifluoromethyl)piperazin-1-yl)methyl)-1-oxoisoindolin-2-yl)piperidine-2,6-dione] | 0.1 to 0.5 | 0.49 | – | – | – | – | – | – | – | – |
| O=C1CCC(N2Cc3cc(CN4CC5(CCN(C(=O)c6ccccc6-c6ccc(Cl)cc6)CC5)C4)ccc3C2=O)C(=O)N1 (stereo not drawn) [GT-05620, 3-(5-((7-(4′-chloro-[1,1′-biphenyl]-2-carbonyl)-2,7-diazaspiro[3.5]nonan-2-yl)methyl)-1-oxoisoindolin-2-yl)piperidine-2,6-dione] | 0.1 to 0.5 | 0.59 | 0.1 to 0.5 | 0.01 to 0.05 | < 3 | < 3 | < 3 | – | – | – |
| O=C1CCC(N2Cc3cc(C(=O)N4CC5CN(Cc6ccccc6-c6ccc(Cl)cc6)CC5C4)ccc3C2=O)C(=O)N1 (stereo not drawn) [GT-05642, 3-(5-(5-((4′-chloro-[1,1′-biphenyl]-2-yl)methyl)octahydropyrrolo[3,4-c]pyrrole-2-carbonyl)-1-oxoisoindolin-2-yl)piperidine-2,6-dione] | 0.05 to 0.1 | 0.49 | – | 0.1 to 0.5 | – | – | – | B (B represents a residual substrate protein level of >50%) | B (B represents a residual substrate protein level of >50%) | A (A represents a residual substrate protein level of <50%) |
| O=C1CCC(N2Cc3cc(C(=O)N4CCC(Nc5ccccc5-c5ccc(Cl)cc5)CC4)ccc3C2=O)C(=O)N1 (stereo not drawn) [GT-05646, 3-(5-(4-((4′-chloro-[1,1′-biphenyl]-2-yl)amino)piperidine-1-carbonyl)-1-oxoisoindolin-2-yl)piperidine-2,6-dione] | 0.1 to 0.5 | 1.02 | – | 0.1 to 0.5 | – | – | – | B (B represents a residual substrate protein level of >50%) | B (B represents a residual substrate protein level of >50%) | A (A represents a residual substrate protein level of <50%) |
| O=C1CCC(N2Cc3cc(CN4CCN(Cc5ccccc5-c5cncs5)CC4)ccc3C2=O)C(=O)N1 (stereo not drawn) [GT-05684, 3-(1-oxo-5-((4-(2-(thiazol-5-yl)benzyl)piperazin-1-yl)methyl)isoindolin-2-yl)piperidine-2,6-dione] | 0.1 to 0.5 | 0.54 | 0.01 to 0.05 | 0.05 to 0.1 | – | – | – | A (A represents a residual substrate protein level of <50%) | A (A represents a residual substrate protein level of <50%) | A (A represents a residual substrate protein level of <50%) |
| CC1(C)CCC(C(=O)N2CCN(Cc3cc4c(cc3F)C(=O)N(C3CCC(=O)NC3=O)C4)CC2)=C(c2ccc(Cl)cc2)C1 (stereo not drawn) [GT-05526, 3-(5-((4-(4′-chloro-5,5-dimethyl-3,4,5,6-tetrahydro-[1,1′-biphenyl]-2-carbonyl)piperazin-1-yl)methyl)-6-fluoro-1-oxoisoindolin-2-yl)piperidine-2,6-dione] | 0.5 to 1 | 0.69 | – | – | – | – | – | B (B represents a residual substrate protein level of >50%) | B (B represents a residual substrate protein level of >50%) | A (A represents a residual substrate protein level of <50%) |
| CC1(C)CCC(CN2CCN(Cc3cc4c(cc3F)C(=O)N(C3CCC(=O)NC3=O)C4)C(C(F)(F)F)C2)=C(c2ccc(Cl)cc2)C1 (stereo not drawn) [GT-06101, 3-(5-((4-((4′-chloro-5,5-dimethyl-3,4,5,6-tetrahydro-[1,1′-biphenyl]-2-yl)methyl)-2-(trifluoromethyl)piperazin-1-yl)methyl)-6-fluoro-1-oxoisoindolin-2-yl)piperidine-2,6-dione] | 0.5 to 1 | – | – | – | – | – | – | – | – | – |
| O=C1CCC(N2Cc3cc(CN4CC5CCC(C4)N5C(=O)c4ccccc4-c4ccc(Cl)cc4)ccc3C2=O)C(=O)N1 (stereo not drawn) [GT-05542, 3-(5-((8-(4′-chloro-[1,1′-biphenyl]-2-carbonyl)-3,8-diazabicyclo[3.2.1]octan-3-yl)methyl)-1-oxoisoindolin-2-yl)piperidine-2,6-dione] | 0.01 to 0.05 | 0.44 | < 0.005 | 0.01 to 0.05 | – | – | – | – | – | – |

Now from value to compound, other results behind:

| IC50 [1] [µM] | IC50 [2] [µM] | IC50 [3] [µM] | IC50 [4] [µM] | concentration at which significant degradation effects on IKZF3 protein are exhibited (FIG. 1) [5, 8] [nM] | concentration at which significant degradation effects on IKZF1 protein are exhibited (FIG. 1) [6, 8] [nM] | concentration at which significant degradation effects on GSPT1 protein are exhibited (FIG. 1) [7, 8] [nM] | SMILES | residual substrate protein level, IKZF3 [5] | residual substrate protein level, IKZF1 [6] | residual substrate protein level, GSPT1 [7] |
| --- | --- | --- | --- | --- | --- | --- | --- | --- | --- | --- |
| 0.05 to 0.1 | 0.57 | 0.01 to 0.05 | 0.01 to 0.05 | – | – | – | CC1(C)CCC(CN2CCN(Cc3ccc4c(c3)CN(C3CCC(=O)NC3=O)C4=O)CC2)=C(c2ccco2)C1 (stereo not drawn) [GT-05790, 3-(5-((4-((2-(furan-2-yl)-4,4-dimethylcyclohex-1-en-1-yl)methyl)piperazin-1-yl)methyl)-1-oxoisoindolin-2-yl)piperidine-2,6-dione] | – | – | – |
| 0.1 to 0.5 | 0.46 | 0.1 to 0.5 | 0.05 to 0.1 | – | – | – | CC1(C)CCC(C(=O)N2CC3(CN(Cc4ccc5c(c4)CN(C4CCC(=O)NC4=O)C5=O)C3)C2)=C(c2ccc(Cl)cc2)C1 (stereo not drawn) [GT-05681, 3-(5-((6-(4′-chloro-5,5-dimethyl-3,4,5,6-tetrahydro-[1,1′-biphenyl]-2-carbonyl)-2,6-diazaspiro[3.3]heptan-2-yl)methyl)-1-oxoisoindolin-2-yl)piperidine-2,6-dione] | A (A represents a residual substrate protein level of <50%) | B (B represents a residual substrate protein level of >50%) | A (A represents a residual substrate protein level of <50%) |
| 0.1 to 0.5 | – | – | 0.1 to 0.5 | – | – | – | CC1(C)CCC(CN2CCN(Cc3ccc4c(c3)C(=O)N(C3CCC(=O)NC3=O)C4=O)CC2)=C(c2ccc(Cl)cc2)C1 (stereo not drawn) [GT-05364, 5-((4-((4′-chloro-5,5-dimethyl-3,4,5,6-tetrahydro-[1,1′-biphenyl]-2-yl)methyl)piperazin-1-yl)methyl)-2-(2,6-dioxopiperidin-3-yl)isoindoline-1,3-dione] | A (A represents a residual substrate protein level of <50%) | A (A represents a residual substrate protein level of <50%) | A (A represents a residual substrate protein level of <50%) |
| 0.1 to 0.5 | – | 0.1 to 0.5 | 0.1 to 0.5 | – | – | – | Cc1ccc(C2=C(CN3CCN(Cc4ccc5c(c4)C(=O)N(C4CCC(=O)NC4=O)C5=O)CC3)CCC(C)(C)C2)cc1 (stereo not drawn) [GT-05793, 2-(2,6-dioxopiperidin-3-yl)-5-((4-((4′,5,5-trimethyl-3,4,5,6-tetrahydro-[1,1′-biphenyl]-2-yl)methyl)piperazin-1-yl)methyl)isoindoline-1,3-dione] | A (A represents a residual substrate protein level of <50%) | B (B represents a residual substrate protein level of >50%) | A (A represents a residual substrate protein level of <50%) |
